Test results reported in patent US10722520B2, “Heterocyclic compounds and their use in preventing or treating bacterial infections” (MUTABILIS, priority 2016, dated 2020).
Like-named read-outs stand apart in the source and are kept apart here.

Assays:
[1] = target: OXA-15 (Pseudomonas aeruginosa, UniProt Q51574); assay: biochemical
[2] = target: SHV-1 (Klebsiella pneumoniae, UniProt P0AD64)
[3] = target: KPC-2 (Klebsiella pneumoniae, UniProt Q9F663)
[4] = target: OXA-1 (Escherichia coli, UniProt P13661)
[5] = tested on: E. coli RGN238; assay: microbe, parasite or virus in culture; assay type: cell-based
Description: Log phase bacterial suspensions were adjusted to a final density of 5×10^5 cfu/mL in cation-adjusted Mueller-Hinton broth (Becton-Dickinson) and added to each well (98 μL). Microplates were incubated for 16-20 h at 35° C. in ambient air. The MIC of the compounds was defined as the lowest concentration of said compounds that prevented bacterial growth as read by visual inspection.

[6] = target: OXA-48 (Klebsiella pneumoniae, UniProt Q6XEC0)
[7] = tested on: E. coli RGN238; assay: MIC of ceftazidime (CAZ) at fixed concentration of compound (synergy), broth microdilution; assay type: cell-based; conditions: MIC of ceftazidime with compound fixed at 4 μg/mL; strain RGN238 (E. coli)
Method in brief: (§1)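 Log-phase bacteria were diluted to a final 5×10^5 cfu/mL in cation-adjusted Mueller-Hinton broth and incubated 16-20 h at 35° C in ambient air. MIC was taken as the lowest concentration preventing growth, judged visually.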

[8] = tested on: E. coli 131119; assay: as above; assay type: cell-based; conditions: MIC of ceftazidime with compound fixed at 4 μg/mL; strain 131119 (E. coli)
Method in brief: as §1

[9] = tested on: E. coli UFR18; assay: as above; assay type: cell-based; conditions: MIC of ceftazidime with compound fixed at 4 μg/mL; strain UFR18 (E. coli)
Method in brief: as §1

[10] = tested on: E. cloacae UFR70; assay: as above; assay type: cell-based; conditions: MIC of ceftazidime with compound fixed at 4 μg/mL; strain UFR70 (E. cloacae)
Method in brief: as §1

[11] = tested on: K. pneumoniae UFR24; assay: as above; assay type: cell-based; conditions: MIC of ceftazidime with compound fixed at 4 μg/mL; strain UFR24 (K. pneumoniae)
Method in brief: as §1

[12] = tested on: E. coli UFR39; assay: as above; assay type: cell-based; conditions: MIC of ceftazidime with compound fixed at 4 μg/mL; strain UFR39 (E. coli)
Method in brief: as §1

[13] = tested on: E. cloacae UFR51; assay: as above; assay type: cell-based; conditions: MIC of ceftazidime with compound fixed at 4 μg/mL; strain UFR51 (E. cloacae)
Method in brief: as §1

[14] = tested on: K. pneumoniae BAA-1898; assay: as above; assay type: cell-based; conditions: MIC of ceftazidime with compound fixed at 4 μg/mL; strain BAA-1898 (K. pneumoniae)
Method in brief: as §1

[15] = tested on: E. coli UFR74; assay: as above; assay type: cell-based; conditions: MIC of ceftazidime with compound fixed at 4 μg/mL; strain UFR74 (E. coli)
Method in brief: as §1

[16] = tested on: K. pneumoniae 200047; assay: as above; assay type: cell-based; conditions: MIC of ceftazidime with compound fixed at 4 μg/mL; strain 200047 (K. pneumoniae)
Method in brief: as §1

[17] = tested on: E. coli 190317; assay: as above; assay type: cell-based; conditions: MIC of ceftazidime with compound fixed at 4 μg/mL; strain 190317 (E. coli)
Method in brief: as §1

[18] = tested on: K. pneumoniae 6299; assay: as above; assay type: cell-based; conditions: MIC of ceftazidime with compound fixed at 4 μg/mL; strain 6299 (K. pneumoniae)
Method in brief: as §1

[19] = tested on: E. coli UFR61O; assay: as above; assay type: cell-based; conditions: MIC of ceftazidime with compound fixed at 4 μg/mL; strain UFR61O (E. coli)
Method in brief: as §1

[20] = tested on: K. pneumoniae UFR68; assay: as above; assay type: cell-based; conditions: MIC of ceftazidime with compound fixed at 4 μg/mL; strain UFR68 (K. pneumoniae)
Method in brief: as §1

[21] = tested on: E. cloacae 260508; assay: as above; assay type: cell-based; conditions: MIC of ceftazidime with compound fixed at 4 μg/mL; strain 260508 (E. cloacae)
Method in brief: as §1

[22] = tested on: P. aeruginosa CIP107051; assay: as above; assay type: cell-based; conditions: MIC of ceftazidime with compound fixed at 4 μg/mL; strain CIP107051 (P. aeruginosa)
Method in brief: as §1

[23] = tested on: E. coli UFR41; assay: as above; assay type: cell-based; conditions: MIC of ceftazidime with compound fixed at 4 μg/mL; strain UFR41 (E. coli)
Method in brief: as §1

[24] = tested on: E. cloacae P99; assay: as above; assay type: cell-based; conditions: MIC of ceftazidime with compound fixed at 4 μg/mL; strain P99 (E. cloacae)
Method in brief: as §1

[25] = tested on: K. oxytoca UFR21; assay: as above; assay type: cell-based; conditions: MIC of ceftazidime with compound fixed at 4 μg/mL; strain UFR21 (K. oxytoca)
Method in brief: as §1

[26] = tested on: E. cloacae UFR85; assay: as above; assay type: cell-based; conditions: MIC of ceftazidime with compound fixed at 4 μg/mL; strain UFR85 (E. cloacae)
Method in brief: as §1

[27] = tested on: K. pneumoniae 160143; assay: as above; assay type: cell-based; conditions: MIC of ceftazidime with compound fixed at 4 μg/mL; strain 160143 (K. pneumoniae)
Method in brief: as §1

[28] = target: CTX-M-15 (Escherichia coli, UniProt Q9EXV5)
[29] = target: TEM-1 (Escherichia coli, UniProt P62593)
[30] = target: CMY-37 (Citrobacter freundii, UniProt P05193); conditions: read-out: IC50 β-lactamase CMY-37; class (C); nitrocefin 200 μM, 30-min pre-incubation, enzyme 0.2 nM

In the case of O=C1N2CC(n3nccn3)=CC(C2)N1OS(=O)(=O)O (stereo not shown) [Example 3, sodium [7-oxo-3-(triazol-2-yl)-1,6-diazabicyclo[3.2.1]oct-3-en-6-yl]sulfate], the IC50 [1] is reported as 190 nM, the IC50 [2] is reported as 9.7 nM and the IC50 [3] is reported as 12 nM. It also gave an IC50 [4] of 200 nM, an MIC ([5]; Escherichia coli, RGN238, read-out: MIC compounds of the invention alone) of 2 µg/mL and an IC50 [6] of 1.6 nM. The “MIC combination of CAZ and compounds of the invention at 4 μg/mL” value (from here on “MIC combination”) [7] was <0.25, the “MIC combination” value [8] was <0.25 and the “MIC combination” value [9] was <0.25. For the same compound, the “MIC combination” value [10] was <0.25, the “MIC combination” value [11] was ≤0.25 and the “MIC combination” value [12] was >128. The “MIC combination” value [13] was <0.25, the “MIC combination” value [14] was 0.5 and the “MIC combination” value [15] was <0.25. For the same compound, the “MIC combination” value [16] was <0.25, the “MIC combination” value [17] was <0.25 and the “MIC combination” value [18] was <0.25. The “MIC combination” value [19] was ≤0.25, the “MIC combination” value [20] was 0.5 and the “MIC combination” value [21] was <0.25. The “MIC combination” value [22] was 4, the “MIC combination” value [23] was >128 and the “MIC combination” value [24] was ≤0.25. The “MIC combination” value [25] was 0.5, the “MIC combination” value [26] was <0.25 and the “MIC combination” value [27] was <0.25. It also gave an IC50 [28] of 2.1 nM and an IC50 [29] of 0.73 nM.
O=C1N2CC(n3ccnn3)=CC(C2)N1OS(=O)(=O)[O-].[Na+] (stereo not shown) [Example 2, sodium [7-oxo-3-(triazol-1-yl)-1,6-diazabicyclo[3.2.1]oct-3-en-6-yl]sulfate] gave an IC50 ([2]; read-out: IC50 β-lactamase SHV-1, class (A), nitrocefin 200 μM, 30-min pre-incubation, enzyme 0.075 nM) of 4 nM, an IC50 ([3]; read-out: IC50 β-lactamase KPC-2, class (A), nitrocefin 200 μM, 30-min pre-incubation, enzyme 1 nM) of 4.7 nM and an IC50 ([4]; read-out: IC50 β-lactamase OXA-1, class (D), nitrocefin 200 μM, 30-min pre-incubation, enzyme 0.2 nM) of 58 nM. For the same compound, the “MIC compounds of the invention alone” value ([5]; strain RGN238: E. coli, OXA-1) was 2 µg/mL, the IC50 [30] was 31 nM and the IC50 ([6]; read-out: IC50 β-lactamase OXA-48, class (D), nitrocefin 200 μM, 30-min pre-incubation, enzyme 0.3 nM) was 0.59 nM. For the same compound, the “MIC combination” value [7] was <0.25, the “MIC combination” value [8] was <0.25 and the “MIC combination” value [9] was <0.25. The “MIC combination” value [10] was <0.25, the “MIC combination” value [11] was ≤0.25 and the “MIC combination” value [12] was <0.25. The “MIC combination” value [13] was <0.25, the “MIC combination” value [14] was <0.25 and the “MIC combination” value [15] was <0.25. The “MIC combination” value [16] was <0.25, the “MIC combination” value [17] was <0.25 and the “MIC combination” value [18] was <0.25. For the same compound, the “MIC combination” value [19] was <0.25, the “MIC combination” value [20] was <0.25 and the “MIC combination” value [21] was <0.25. For the same compound, the “MIC combination” value [22] was 4, the “MIC combination” value [23] was <0.25 and the “MIC combination” value [24] was <0.25. The “MIC combination” value [25] was <0.25, the “MIC combination” value [26] was <0.25 and the “MIC combination” value [27] was <0.25. The IC50 ([28]; read-out: IC50 β-lactamase CTX-M-15, class (A), nitrocefin 200 μM, 30-min pre-incubation, enzyme 0.4 nM) was 0.67 nM and the IC50 ([29]; read-out: IC50 β-lactamase TEM-1, class (A), nitrocefin 200 μM, 30-min pre-incubation, enzyme 0.1 nM) was 0.56 nM.
